Measured values: patent publication US20260193295A1, “CILAGICIN COMPOUNDS AND METHODS OF USE THEREOF” (priority 2022, published 2026)
Positions of bridges follow the written chain, without caps; N, C: chain ends. Non-standard residues stand in square brackets, D forms with d. Residues, ends and D or L forms follow the SMILES beside them. *: point of attachment. Myristoyl = CCCCCCCCCCCCCC(=O)*; dDab = NCC[C@@H](N)C(=O)O; Dab = NCC[C@H](N)C(=O)O

Tests used:
[1] = tested on: S. aureus; experiment: Direct plating of S. aureus on cilagicin-containing agar plates (resistant colonies); assay type: cell-based, Staphylococcus aureus; conditions: plating S. aureus directly on cilagicin-containing agar plates
[2] = tested on: S. aureus USA300; experiment: Time-dependent killing assay; assay type: cell-based, Staphylococcus aureus; conditions: S. aureus USA300, 10x the MIC
Method: An overnight culture of S. aureus USA300 was diluted 1:10,000 in 50 mL fresh LB and incubated at 37° C. with aeration at 220 rpm for 2 hours. Bacteria (3 mL) were challenged with 10× the MIC of each antibiotic (10 μg/mL cilagicin, 10 μg/mL vancomycin). After 1.25, 4, 8, 16 and 24 hours 200 μL aliquots of cells were collected, centrifuged at 10,000×g for 1 minute and then resuspended in 200 μL of sterile PBS (pH 7.4). 50 μL aliquots of 10-fold serial dilutions were plated on LB agar plates. After overnight growth at 37° C., colonies were counted. Experiments were performed three independent times (n=3).

[3] = tested on: S. aureus USA300; experiment: Cell lysis assay (SYTOX green); assay type: cell-based, Staphylococcus aureus; conditions: S. aureus exposed to 8-fold MIC
Method: Cell lytic activity of cilagicin was evaluated using SYTOX green nucleic acid stain (Thermo Fisher, USA). Gramicidin and DMSO were used as positive and negative controls, respectively. S. aureus USA300 was grown overnight at 37° C. with shaking (200 rpm) and then diluted in fresh LB broth to an OD600nm of 0.35. 900 μL of this S. aureus USA300 suspension was mixed with 100 μL of SYTOX (17 μM in DMSO). The mixture was incubated at room temperature for 5 minutes, and then transferred into a 384-well flat bottom black microtiter plate (30 μL/well). The initial fluorescence intensity of each well was recorded using an infinite 200 PRO (Excitation/Emission=488/523 nm) at 9 second intervals for 5 minutes. […] The fluorescence intensity of each well was then continually monitored at 9 second intervals for 25 minutes and plotted by Prism 9.0. All assays were performed in biological triplicates (n=3).

[4] = tested on: S. aureus USA300; experiment: Membrane depolarization assay (DiSC3(5)); assay type: cell-based, Staphylococcus aureus; conditions: S. aureus exposed to 8-fold MIC
Method: The effect of cilagicin on membrane depolarization was analyzed using DiSC3(5) dye (Thermo Fisher, USA). Overnight cultures of S. aureus USA300 were harvested and resuspended in PBS (OD600 nm=0.37). Cell suspension (1 mL) and 10 μL of 4 μM DisC3(5) were pre-mixed and incubated in the dark at room temperature for 15 minutes. 50 μL of this mixture was then added to each well of black 96-well flat bottom black microtiter plates. The initial fluorescence intensity of each well was recorded using an infinite 200 PRO (Excitation/Emission=620/670 nm) at 9 second intervals for 15 minutes. 50 μL of a 1 μM solution of each test compound was then added to each well. Gramicidin (30 μM) and melittin (1 μM) were used as positive controls. DMSO was used as the vehicle control. The fluorescence intensity of each well was then monitored at 9 second intervals for another 15 minutes and plotted by Prism 9.0. All assays were performed in biological triplicate (n=3).

[5] = tested on: S. aureus USA300; experiment: Resistance studies (daily serial passage at sub-MIC); assay type: cell-based, Staphylococcus aureus
Method: A single colony of S. aureus USA300 was inoculated in 5 mL LB broth and grown overnight at 37° C. with continuous shaking (200 rpm). The overnight culture was then diluted 1:5,000 into fresh LB. 50 μL aliquots of dilute cells were transferred into individual wells of 96-well plates containing 50 μL of serially diluted cilagicin, amphomycin (AG Scientific, USA) or bacitracin (Sigma, USA). Plates were statically incubated at 37° C. After 24 hours, the MIC was recorded. […] The MIC was determined as described above. This process was repeated daily for 25 days. For bacitracin, the LB medium was supplemented with 50 μg/mL ZnCl2. For amphomycin, the medium was supplemented with 100 μg/mL CaCl2-2H2O. Experiments were performed three independent times (n=3).

[6] = tested on: S. aureus USA300; experiment: Scanning electron microscopy of treated cells; assay type: cell-based, Staphylococcus aureus; conditions: S. aureus USA300, 10x the MIC, 0-4 hours
Method: S. aureus USA300 cultures at different time points from the time-kill curve analysis (FIG. 2A, 0, 1, 2, and 4 hours) were used in this study. 30 μl of each cell suspension was spotted onto 12 mm glass or Aclar film round coverslips. A drop of fixative (100 μl of 2% glutaraldehyde, 4% formaldehyde in 0.1 M sodium cacodylate buffer pH 7.2) was added on top of the coverslip which was coated with 0.1% polylysine. After 30 minutes, additional fixative was added to the dish containing the coverslips and samples were left at 4° C. overnight. Samples were gently washed three times with 0.1 M sodium cacodylate buffer (pH 7.2) for 5-10 minutes each time and postfixed with osmium tetroxide 1% in 0.1M sodium cacodylate buffer pH 7.2 for 1 hour at room temperature. After rinsing three times with buffer, samples were dehydrated in a graded series of ethanol concentrations (30%, 50%, 70%, 90%) for 10 minutes each and three times in 100% ethanol (with molecular sieves) for 15 minutes each and then further dried in a critical point drier (Tousimis Autosamdri 931, USA). Samples were coated with 10 nm of iridium using a Leica ACE600 sputter coater.

[7] = mice, intraperitoneal (IP) injection

For `CCCCCCCCCCCCCC(=O)N[C@H](CO)C(=O)N[C@@H]1C(=O)N[C@H](CCN)C(=O)N[C@@H](CC(=O)O)C(=O)NCC(=O)N[C@H](CC(N)=O)C(=O)N[C@H](CC(=O)O)C(=O)NCC(=O)N[C@@H](Cc2ccc(O)cc2)C(=O)N[C@@H](C(C)C)C(=O)N[C@@H](CCN)C(=O)N[C@@H](Cc2ccccc2)C(=O)O[C@@H]1C` [Cilagicin] (Myristoyl-[dS]T[dDab]DG[dN][dD]GYV[Dab]F; ester 2-C), the “colonies that showed more than a 2-fold increase in MIC (2 μg/mL)” value [1] was “never observed”, the “time-dependent killing curve analysis, kind of action” value [2] was “bactericidal” and the “reduction of the number of viable bacteria” value ([2]; after 4 hours) was “more than four orders of magnitude”. For the same compound, the “cell lytic activity (SYTOX fluorescence)” value [3] was “No response was detected”, the “membrane depolarization (DiSC3(5) fluorescence)” value [4] was “No response was detected” and the “maximum change in MIC (increase)” value ([5]; S. aureus USA300, after 25 days of constant exposure) was 1 fold. For the same compound, the “cross resistance of bacitracin resistant and amphomycin resistant mutants” value ([5]; S. aureus mutants raised by serial passage) was “neither the highly bacitracin resistant mutants nor the highly amphomycin resistant mutants that were generated showed cross resistance”, the “electron microscopy images of treated cells” value [6] was “cell collapse over time” and the plasma bioavailability [7] was “high plasma bioavailability”.
